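Step 1: Grow cells in 96-well plates. Step 2: Expose to compound for 48 hours at 5 concentrations. Step 3: Interpolate endpoints linearly; if unreached, use highest concentration. Abbreviation: GI50, concentration required for 50% inhibition of growth.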 Calls of active or inactive are those of the source. Rule as the data show it: active = GI50 up to about 1.1 µM and inactive = higher.
Columns and labels:
Test in all cases: NCI tumour cell line growth inhibition, 48 h
[1] = test system: CCRF-CEM
[2] = test system: COLO 205
[3] = test system: EKVX
[4] = test system: HCT-15
[5] = test system: HT-29
[6] = test system: IGROV-1
[7] = test system: KM12
[8] = test system: NCI-H23
[9] = test system: NCI-H460
[10] = test system: OVCAR-3
[11] = test system: OVCAR-8
[12] = test system: RPMI-8226
[13] = test system: SF-268
[14] = test system: SK-MEL-28
[15] = test system: SK-MEL-5
[16] = test system: SN12C
[17] = test system: SNB-19
[18] = test system: SW-620
[19] = test system: U-251
[20] = test system: UO-31

Row | Compound | GI50 [1] | GI50 [2] | GI50 [3] | GI50 [4] [µM] | GI50 [5] | GI50 [6] | GI50 [7] | GI50 [8] | GI50 [9] | GI50 [10] | GI50 [11] | GI50 [12] | GI50 [13] | GI50 [14] | GI50 [15] | GI50 [16] | GI50 [17] | GI50 [18] | GI50 [19] | GI50 [20]
1 | CC(C)(C)c1cc(C(P(=O)(c2ccccc2)c2ccccc2)P(=O)(c2ccccc2)c2ccccc2)cc(C(C)(C)C)c1O | 2.21 µM (inactive) | 1.87 µM (inactive) | 2.98 µM (inactive) | 2.96 | 2.08 µM (inactive) | 3.12 µM (inactive) | 1.8 µM (inactive) | 2.84 µM (inactive) | 2.11 µM (inactive) | 2.3 µM (inactive) | 2.44 µM (inactive) | 3.19 µM (inactive) | 2.93 µM (inactive) | 1.95 µM (inactive) | 1.54 µM (inactive) | 3.39 µM (inactive) | 3.44 µM (inactive) | 3.21 µM (inactive) | 2.77 µM (inactive) | 2.24 µM (inactive)
2 | COc1ccc(C(=O)c2c(-c3ccccc3NC(=O)C(F)(F)F)[nH]c3ccccc23)cc1 | 2.46 µM (inactive) | 4.05 µM (inactive) | 11.8 µM (inactive) | 4.98 | 3.97 µM (inactive) | 10.6 µM (inactive) | 3.88 µM (inactive) | 11.7 µM (inactive) | 4.26 µM (inactive) | 3.83 µM (inactive) | 6.19 µM (inactive) | 4.8 µM (inactive) | 12.8 µM (inactive) | 13.6 µM (inactive) | 8.95 µM (inactive) | 14.6 µM (inactive) | 6.37 µM (inactive) | 4.06 µM (inactive) | 2.56 µM (inactive) | 5.05 µM (inactive)
3 | Clc1cc(Cl)cc(C2ON=C(c3ccccc3)N2C23CC4CC(CC(C4)C2)C3)c1 (stereo not given) | > 10 µM (inactive) | > 10 µM (inactive) | > 10 µM (inactive) | > 10 | > 10 µM (inactive) | > 10 µM (inactive) | > 10 µM (inactive) | > 10 µM (inactive) | > 10 µM (inactive) | > 10 µM (inactive) | > 10 µM (inactive) | > 10 µM (inactive) | > 10 µM (inactive) | > 10 µM (inactive) | > 10 µM (inactive) | > 10 µM (inactive) | > 10 µM (inactive) | > 10 µM (inactive) | > 10 µM (inactive) | > 10 µM (inactive)
4 | CCOC(=O)/C(=N/Nc1ccc(C)cc1)N1C(=S)N(C)N=C(C)C=C1S | > 100 µM (inactive) | > 100 µM (inactive) | > 100 µM (inactive) | > 100 | > 100 µM (inactive) | > 100 µM (inactive) | > 100 µM (inactive) | 94.4 µM (inactive) | > 100 µM (inactive) | > 100 µM (inactive) | 75 µM (inactive) | > 100 µM (inactive) | 33.8 µM (inactive) | > 100 µM (inactive) | > 100 µM (inactive) | > 100 µM (inactive) | 69.8 µM (inactive) | > 100 µM (inactive) | 24.1 µM (inactive) | > 100 µM (inactive)
5 | O=C(/N=C(/Nc1ccccc1)SCS/C(=N\C(=O)c1ccco1)Nc1ccccc1)c1ccco1 | > 100 µM (inactive) | > 100 µM (inactive) | 33.9 µM (inactive) | > 100 | > 100 µM (inactive) | 63.4 µM (inactive) | > 100 µM (inactive) | 24.4 µM (inactive) | > 100 µM (inactive) | 40.8 µM (inactive) | 50.6 µM (inactive) | > 100 µM (inactive) | 22.5 µM (inactive) | > 100 µM (inactive) | 61.5 µM (inactive) | 84.1 µM (inactive) | 24 µM (inactive) | > 100 µM (inactive) | 32 µM (inactive) | 44.8 µM (inactive)
